Reference: article PMC10011573, “Development of novel broad-spectrum antimicrobial lipopeptides derived from plantaricin NC8 β” (Scientific Reports, 2023)
Where two headings read alike, the source gives them in different places. Residues, ends and D or L forms follow the SMILES beside them. No end group written: not given here. *: point of attachment. Pentadecanoyl = CCCCCCCCCCCCCCC(=O)*; Decanoyl = CCCCCCCCCC(=O)*; Octanoyl = CCCCCCCC(=O)*; Butyryl = CCCC(=O)*

What was measured:
[1] = Carboxyfluorescein release assay, mammalian liposome model; assay type: biochemical; settings: 65:5:30 POPC:POPS:Chol. liposomes, 25 µM lipid, 10 mM PBS pH 7.4, 10^–5–10^2 µM peptide, 60 min, fluorescence, Hill fit, n = 3; read-out: EC50 Mammalial (concentration that triggers 50% CF release)
Protocol: (§1) Liposomes were prepared by thin-film hydration method. Lipids stock solutions (10 mg/ml in chloroform, Avanti Polar Lipids, Inc., Alabaster, United States) of the lipids 1-palmitoyl-2-oleoyl-sn-glycero-3-phosphocholine (POPC), 1-palmitoyl-2-oleoyl-sn-glycero-3-phospho-L-serine (POPS), 1-Hexadecanoyl-2-(9Z-Octadecenoyl)-sn-Glycero-3-Phosphoglycerol (POPG) and Cholesterol (Chol) were employed. Bacterial liposomes were prepared with a 75:25 ratio of POPC:POPG and mammalian liposomes were prepared with a 65:5:30 ratio of POPC:POPS:Chol. Lipid solutions were thoroughly homogenised, and the solvent was evaporated with the use of a dry N2 steam to yield a lipid cake. […] The lipid film was subsequently hydrated with a 5(6)-CF solution (50 mM CF, 10 mM PBS, 90 mM NaCl, pH 7.4). Following a 10 min incubation on orbital shaker (50 min^−1), the solution was vortexed for 60 s on medium speed. A mini extruder (Avanti Polar Lipids, Inc., United States) was employed and 21 extrusions were performed through a 0.1 µm filter membrane (Nuclepore track-etched hydrophilic membrane, Cytiva, Whatman, MA, United States), resulting in monodispersed unilamellar liposomes. Directly before use the liposomes were purified from unencapsulated CF by filtration through a gel filtration column (PD Minitrap G-25 column, Cytiva, United States), against PBS buffer (10 mM, pH 7.4).
(§2) Peptide and lipopeptide activity towards liposome models were evaluated using a carboxyfluorescein (CF) release assay. Liposomes were diluted in PBS (10 mM, pH 7.4) to a final lipid concentration of 25 µM and incubated with peptides (10^–5–10^2 µM) in a 96-well plate (n = 3). CF release was monitored using an Infinite M1000 PRO plate reader every 2.5 min for 1 h. Full (100%) CF release was obtained by addition of 1% Triton X-100 solution followed by 10 min incubation. CF release percentage was evaluated according to the formula 100 * (F − F0)/(FT − F0), where F indicates the instantaneous fluorescence, FT the total fluorescence and F0 the background fluorescence prior to peptide addition. Data were fitted to a Hill-1 curve using MATLAB R2019a (The MathWorks Inc., Natick, Massachusetts, United States) and the half maximum effective concentration (EC50) was extracted.

[2] = Carboxyfluorescein release assay, bacterial liposome model; assay type: biochemical; settings: for EC50: 75:25 POPC:POPG liposomes, 25 µM lipid, 10 mM PBS pH 7.4, 10^–5–10^2 µM peptide, 60 min, fluorescence, Hill fit, n = 3, read-out: EC50 Bacterial (concentration that triggers 50% CF release)
Protocol: as §1, §2

E. coli (K-12 MG1655) = test system: E. coli (K-12 MG1655)
Protocol: (§3) S. aureus (ATCC 29213, MSSA, ATCC, Manassas, VA), E. coli (K-12 MG1655) and clinical isolates of S. aureus, E. coli, E. faecium, K. pneumoniae, A. baumannii, P. aeruginosa and E. cloacae obtained from the Department of Laboratory Medicine at Örebro University Hospital were streaked on Luria–Bertani (LB) agar plates and incubated at 37 °C overnight. Single colonies were inoculated into 5 ml of LB broth and incubated on a shaker (400 rpm) at 37 °C overnight. The bacterial concentrations were determined by viable count and were adjusted to correlate with approximately 10^9 CFU/ml.
(§4) The broth microdilution method was used to determine minimal inhibitory concentration (MIC) and minimal bactericidal concentration (MBC), in accordance with the EUCAST standards for the broth microdilution method. Two-fold serial dilutions of the lipopeptides were used, and the final concentrations ranged from 0.19 to 100 µM. In brief, two-fold serial dilutions of the lipopeptides were performed in a 96-well plate in PBS, with a final volume of 100 µl per well, after which 100 µl of LB-broth media containing approximately 5 × 10^5 CFU/ml of bacteria was added to each well. The plate was then incubated for 20 h in 37 °C on a shaker (400 rpm). The effect of lipopeptide-antibiotic combinations was investigated by performing checkerboard assays. The assays were performed in accordance with the MIC and MBC tests conducted above, but with horizontal and longitudinal two-fold serial dilutions of the tested compounds. […] The fractional inhibitory concentration (FIC) and fractional bactericidal concentration (FBC) were calculated by the equation (MIC or MBC of peptide in combination/MIC or MBC of peptide alone) + (MIC or MBC of antibiotic in combination/MIC or MBC of antibiotic alone). Synergy was defined as FIC/FBC ≤ 0.5, additive when 0.5 < FIC/FBC ≤ 1, indifferent when 1 < FIC/FBC < 2 and antagonistic when FIC/FBC ≥ 2. All experiments were repeated at least three times.

[3] = test system: S. aureus (ATCC 29213, MSSA)
Protocol: as §3, §4

S. aureus (ATCC 29213) = assay type: cell-based; settings: Table 6; ATCC 29213; checkerboard assay, 50:50 PBS/LB-broth, 200 µL
Protocol: as §4, with “Two-fold serial dilutions of the lipopeptides were used, and the final concentrations ranged from 0.19 to 100 µM.” left out, “Synergy was defined as FIC/FBC ≤ 0.5, additive when 0.5 < FIC/FBC ≤ 1, indifferent when 1 < FIC/FBC < 2 and antagonistic when FIC/FBC ≥ 2.” left out

[4] = Table 3, K-12 MG1655, broth microdilution, 50:50 PBS/LB-broth, 200 µL, 20 h, 37 °C
[5] = Table 3, ATCC 29213, broth microdilution, 50:50 PBS/LB-broth, 200 µL, 20 h, 37 °C

| Compound | EC50 [1] [nM] | EC50 [2] [nM] | E. coli MBC (E. coli (K-12 MG1655); K-12, 20 h) [µM] | E. coli MIC (E. coli (K-12 MG1655); K-12, 20 h) [µM] | S. aureus MBC ([3]; ATCC 29213, 20 h) [µM] | S. aureus MIC ([3]; ATCC 29213, 20 h) [µM] | other results |
| --- | --- | --- | --- | --- | --- | --- | --- |
| CCCC(=O)N[C@@H](CC(C)C)C(=O)NCC(=O)N[C@H](C(=O)N[C@@H](CCCCN)C(=O)N[C@H](C(=O)N[C@@H](CC(C)C)C(=O)N[C@@H](Cc1c[nH]c2ccccc12)C(=O)N[C@@H](CO)C(=O)N[C@@H](C)C(=O)N[C@@H](Cc1ccc(O)cc1)C(=O)N[C@@H](CCCCN)C(=O)N[C@@H](Cc1c[nH]cn1)C(=O)N[C@@H](CCCNC(=N)N)C(=O)N[C@@H](CCCCN)C(=O)N[C@H](C(=O)N[C@H](C(N)=O)[C@@H](C)CC)[C@@H](C)O)[C@@H](C)CC)[C@@H](C)CC [L-6-C4] (Butyryl-LGIKILWSAYKHRKTI-NH2) | > 10000 | 110 | 25 | 12.5 | 25 | 12.5 |  |
| CCCCCCCC(=O)N[C@@H](CC(C)C)C(=O)NCC(=O)N[C@H](C(=O)N[C@@H](CCCCN)C(=O)N[C@H](C(=O)N[C@@H](CC(C)C)C(=O)N[C@@H](Cc1c[nH]c2ccccc12)C(=O)N[C@@H](CO)C(=O)N[C@@H](C)C(=O)N[C@@H](Cc1ccc(O)cc1)C(=O)N[C@@H](CCCCN)C(=O)N[C@@H](Cc1c[nH]cn1)C(=O)N[C@@H](CCCNC(=N)N)C(=O)N[C@@H](CCCCN)C(=O)N[C@H](C(=O)N[C@H](C(N)=O)[C@@H](C)CC)[C@@H](C)O)[C@@H](C)CC)[C@@H](C)CC [L-6-C8] (Octanoyl-LGIKILWSAYKHRKTI-NH2) | 940 | 190 | 12.5 | 12.5 | 3.1 | 3.1 |  |
| CCCCCCCCCC(=O)N[C@@H](CC(C)C)C(=O)NCC(=O)N[C@H](C(=O)N[C@@H](CCCCN)C(=O)N[C@H](C(=O)N[C@@H](CC(C)C)C(=O)N[C@@H](Cc1c[nH]c2ccccc12)C(=O)N[C@@H](CO)C(=O)N[C@@H](C)C(=O)N[C@@H](Cc1ccc(O)cc1)C(=O)N[C@@H](CCCCN)C(=O)N[C@@H](Cc1c[nH]cn1)C(=O)N[C@@H](CCCNC(=N)N)C(=O)N[C@@H](CCCCN)C(=O)N[C@H](C(=O)N[C@H](C(N)=O)[C@@H](C)CC)[C@@H](C)O)[C@@H](C)CC)[C@@H](C)CC [L-6-C10] (Decanoyl-LGIKILWSAYKHRKTI-NH2) | 680 | 1100 | > 100 | > 100 | > 100 | 50 |  |
| CCCCCCCCCCCCCCC(=O)N[C@@H](CC(C)C)C(=O)NCC(=O)N[C@H](C(=O)N[C@@H](CCCCN)C(=O)N[C@H](C(=O)N[C@@H](CC(C)C)C(=O)N[C@@H](Cc1c[nH]c2ccccc12)C(=O)N[C@@H](CO)C(=O)N[C@@H](C)C(=O)N[C@@H](Cc1ccc(O)cc1)C(=O)N[C@@H](CCCCN)C(=O)N[C@@H](Cc1c[nH]cn1)C(=O)N[C@@H](CCCNC(=N)N)C(=O)N[C@@H](CCCCN)C(=O)N[C@H](C(=O)N[C@H](C(N)=O)[C@@H](C)CC)[C@@H](C)O)[C@@H](C)CC)[C@@H](C)CC [L-6-C15] (Pentadecanoyl-LGIKILWSAYKHRKTI-NH2) | 870 | 19400 | > 100 | > 100 | > 100 | > 100 |  |
| CN(C)[C@@H]1C(O)=C(C(N)=O)C(=O)[C@@]2(O)C(O)=C3C(=O)c4c(O)cccc4[C@@](C)(O)[C@H]3C[C@@H]12 [Tetracycline] |  |  |  |  |  |  | S. aureus MBC, antibiotic alone (S. aureus (ATCC 29213)): 8 µg/mL; S. aureus MIC, antibiotic alone (S. aureus (ATCC 29213)): 0.5 µg/mL |
| Ac-ILWSAYKHR-NH2 [S2] |  |  | > 100 | > 100 | > 100 | > 100 |  |
| Ac-KILWSAYKHR-NH2 [S1] |  |  | > 100 | > 100 | > 100 | > 100 |  |
| Ac-LWSAYKHR-NH2 [S3] |  |  | > 100 | > 100 | > 100 | > 100 |  |
| Ac-WSAYK-NH2 [S6] |  |  | > 100 | > 100 | > 100 | > 100 |  |
| Ac-WSAYKH-NH2 [S5] |  |  | > 100 | > 100 | > 100 | > 100 |  |
| Ac-WSAYKHR-NH2 [S4] |  |  | > 100 | > 100 | > 100 | > 100 |  |
| PEG800-LGIKILWSAYKHRKTI [L-6-Peg800] |  |  |  |  |  |  | E. coli MBC (E. coli (K-12 MG1655); [4]): > 100 µM; E. coli MIC (E. coli (K-12 MG1655); [4]): > 100 µM; S. aureus MBC [3, 5]: > 100 µM; S. aureus MIC [3, 5]: > 100 µM |
| SVPTSVYTLGIKILWSAYKHRKTIEKSFNKGFYH [PLNC8 β, reference compound] | 1260 | 20 |  |  |  |  | CF release ([2]; bacterial-mimicking liposomes, peptide 100 pM, after 60 min of incubation): ~ 20%; E. coli MIC (E. coli (K-12 MG1655); Table 2, K-12 MG1655, broth microdilution, 50:50 PBS/LB-broth, 200 µL, 20 h, 37 °C): > 100 µM; E. coli MBC (E. coli (K-12 MG1655); Table 2, K-12 MG1655, broth microdilution, 50:50 PBS/LB-broth, 20 h, 37 °C, 10 µl drops on LB-agar): > 100 µM; E. coli MBC (E. coli (K-12 MG1655); [4]): > 100 µM; S. aureus MBC ([3]; Table 2, ATCC 29213, broth microdilution, 50:50 PBS/LB-broth, 20 h, 37 °C, 10 µl drops on LB-agar): > 100 µM; S. aureus MIC ([3]; Table 2, ATCC 29213, broth microdilution, peptide in PBS, bacteria in LB-broth, 200 µL, 50:50 PBS/broth, ~5 × 10^5 CFU/ml, 20 h, 37 °C, repeated at least three times): > 100 µM; S. aureus MBC [3, 5]: > 100 µM; S. aureus MIC [3, 5]: > 100 µM |
